From the NIST ThermoML archive (doi:10.1016/j.jct.2008.05.014)
± gives the expanded uncertainty stated by the source.

Assay: xn = mol fraction of the nth substance listed
Details: Liquid; for speed of sound: Pulse-echo method

CCCCCCCCCCCC [dodecane] + CCCCCCC
Details	mass density [kg/m3]	speed of sound [m/s]
292.85 K, 15200 kPa, x2 = 0.4999	–	1334.1 ± 2.4
292.85 K, 15200 kPa, x2 = 0.97	–	1263.4 ± 2.4
292.85 K, 30390 kPa, x2 = 0.4999	–	1411.6 ± 2.4
292.85 K, 30390 kPa, x2 = 0.97	–	1348.3 ± 2.4
292.85 K, 45590 kPa, x2 = 0.4999	–	1480.8 ± 2.4
292.85 K, 60790 kPa, x2 = 0.4999	–	1543.7 ± 2.5
292.85 K, 60790 kPa, x2 = 0.97	–	1490.4 ± 2.5
292.85 K, 75990 kPa, x2 = 0.4999	–	1602.4 ± 2.5
292.85 K, 75990 kPa, x2 = 0.97	–	1552 ± 2.5
292.85 K, 91180 kPa, x2 = 0.4999	–	1656.6 ± 2.5
292.85 K, 91180 kPa, x2 = 0.97	–	1609.5 ± 2.6
292.85 K, 101320 kPa, x2 = 0.4999	–	1690.5 ± 2.6
292.86 K, 15200 kPa, x2 = 0.5003	–	1333.8 ± 2.4
292.86 K, 15200 kPa, x2 = 0.9391	–	1268.7 ± 2.4
292.86 K, 30390 kPa, x2 = 0.1014	–	1449.6 ± 2.4
292.86 K, 30390 kPa, x2 = 0.5003	–	1411.4 ± 2.4
292.86 K, 30410 kPa, x2 = 0.9391	–	1352.9 ± 2.4
292.86 K, 45590 kPa, x2 = 0.1014	–	1516.2 ± 2.4
292.86 K, 45590 kPa, x2 = 0.5003	–	1480.8 ± 2.4
292.86 K, 45590 kPa, x2 = 0.9391	–	1427.3 ± 2.4
292.86 K, 45590 kPa, x2 = 0.97	–	1423.1 ± 2.4
292.86 K, 60790 kPa, x2 = 0.1014	–	1577 ± 2.5
292.86 K, 60790 kPa, x2 = 0.5003	–	1543.8 ± 2.5
292.86 K, 60790 kPa, x2 = 0.9391	–	1494.1 ± 2.5
292.86 K, 75990 kPa, x2 = 0.1014	–	1633.6 ± 2.5
292.86 K, 75990 kPa, x2 = 0.5003	–	1602.5 ± 2.5
292.86 K, 75990 kPa, x2 = 0.9391	–	1555.3 ± 2.5
292.86 K, 91180 kPa, x2 = 0.1014	–	1686.1 ± 2.5
292.86 K, 91180 kPa, x2 = 0.5003	–	1656.8 ± 2.5
292.86 K, 91180 kPa, x2 = 0.9391	–	1612.7 ± 2.6
292.86 K, 101320 kPa, x2 = 0.1014	–	1719.2 ± 2.6
292.86 K, 101320 kPa, x2 = 0.9391	–	1647.3 ± 2.6
292.86 K, 101320 kPa, x2 = 0.97	–	1645.4 ± 2.6
292.87 K, 15200 kPa, x2 = 0	–	1384.9 ± 2.4
292.87 K, 15200 kPa, x2 = 0.1014	–	1375.7 ± 2.4
292.87 K, 15200 kPa, x2 = 0.3007	–	1355.3 ± 2.4
292.87 K, 15200 kPa, x2 = 0.7007	–	1306.2 ± 2.4
292.87 K, 30390 kPa, x2 = 0	–	1457.9 ± 2.4
292.87 K, 30390 kPa, x2 = 0.3007	–	1430.9 ± 2.4
292.87 K, 30390 kPa, x2 = 0.7007	–	1386.2 ± 2.4
292.87 K, 45590 kPa, x2 = 0	–	1524.1 ± 2.4
292.87 K, 45590 kPa, x2 = 0.3007	–	1498.8 ± 2.4
292.87 K, 45590 kPa, x2 = 0.7007	–	1457.9 ± 2.4
292.87 K, 60790 kPa, x2 = 0	–	1584.5 ± 2.5
292.87 K, 60790 kPa, x2 = 0.3007	–	1560.6 ± 2.5
292.87 K, 60790 kPa, x2 = 0.7007	–	1522.8 ± 2.5
292.87 K, 75990 kPa, x2 = 0	–	1640.7 ± 2.5
292.87 K, 75990 kPa, x2 = 0.3007	–	1618.5 ± 2.5
292.87 K, 75990 kPa, x2 = 0.7007	–	1582.4 ± 2.5
292.87 K, 91180 kPa, x2 = 0	–	1692.8 ± 2.5
292.87 K, 91180 kPa, x2 = 0.3007	–	1671.5 ± 2.5
292.87 K, 91180 kPa, x2 = 0.7007	–	1638 ± 2.6
292.87 K, 101320 kPa, x2 = 0	–	1725.8 ± 2.6
292.87 K, 101320 kPa, x2 = 0.3007	–	1705.1 ± 2.6
292.87 K, 101320 kPa, x2 = 0.5003	–	1691 ± 2.6
292.87 K, 101320 kPa, x2 = 0.7007	–	1672.6 ± 2.6
292.87 K, 101320 kPa, x2 = 0.8496	–	1658.6 ± 2.6
292.88 K, 15200 kPa, x2 = 0.8496	–	1284 ± 2.4
292.88 K, 75990 kPa, x2 = 0.8496	–	1566.3 ± 2.5
292.89 K, 101 kPa, x2 = 0	–	1299.5 ± 1.6
292.89 K, 101 kPa, x2 = 0.3002	–	1267.5 ± 1.6
292.89 K, 101 kPa, x2 = 0.3996	–	1255 ± 1.6
292.89 K, 101 kPa, x2 = 0.6	–	1226.8 ± 1.6
292.89 K, 101 kPa, x2 = 0.7002	–	1210.7 ± 1.6
292.89 K, 101 kPa, x2 = 0.8995	–	1174.4 ± 1.6
292.89 K, 30390 kPa, x2 = 0.8496	–	1366.5 ± 2.4
292.89 K, 45590 kPa, x2 = 0.8496	–	1439.7 ± 2.4
292.89 K, 60790 kPa, x2 = 0.8496	–	1505.9 ± 2.5
292.89 K, 91180 kPa, x2 = 0.8496	–	1623.3 ± 2.6
292.9 K, 101 kPa, x2 = 0.8	–	1193.4 ± 1.6
292.91 K, 101 kPa, x2 = 0.1007	–	1289.6 ± 1.6
292.91 K, 101 kPa, x2 = 0.2001	–	1279 ± 1.6
292.91 K, 101 kPa, x2 = 0.5002	–	1241.3 ± 1.6
293.15 K, 101 kPa, x2 = 0	748.921 ± 0.63	–
293.15 K, 101 kPa, x2 = 0.0991	744.788 ± 0.63	–
293.15 K, 101 kPa, x2 = 0.2008	740.186 ± 0.64	–
293.15 K, 101 kPa, x2 = 0.2998	735.319 ± 0.65	–
293.15 K, 101 kPa, x2 = 0.3996	729.97 ± 0.65	–
293.15 K, 101 kPa, x2 = 0.5	724.072 ± 0.66	–
293.15 K, 101 kPa, x2 = 0.6	717.632 ± 0.67	–
293.15 K, 101 kPa, x2 = 0.7005	710.489 ± 0.68	–
293.15 K, 101 kPa, x2 = 0.7995	702.66 ± 0.69	–
293.15 K, 101 kPa, x2 = 0.8486	698.428 ± 0.69	–
293.15 K, 101 kPa, x2 = 0.8988	693.851 ± 0.7	–
293.15 K, 101 kPa, x2 = 0.9498	688.947 ± 0.7	–
298.14 K, 30390 kPa, x2 = 0.97	–	1329.4 ± 2.4
298.14 K, 30410 kPa, x2 = 0.9391	–	1333.2 ± 2.4
298.14 K, 45590 kPa, x2 = 0.9391	–	1408.7 ± 2.4
298.14 K, 45590 kPa, x2 = 0.97	–	1405.4 ± 2.4
298.14 K, 60790 kPa, x2 = 0.9391	–	1476.6 ± 2.5
298.14 K, 60790 kPa, x2 = 0.97	–	1473.9 ± 2.5
298.14 K, 75990 kPa, x2 = 0.97	–	1536.2 ± 2.5
298.14 K, 91180 kPa, x2 = 0.9391	–	1596.4 ± 2.6
298.14 K, 91180 kPa, x2 = 0.97	–	1594.1 ± 2.6
298.14 K, 101320 kPa, x2 = 0.9391	–	1632.6 ± 2.6
298.14 K, 101320 kPa, x2 = 0.97	–	1630.6 ± 2.6
298.15 K, 101 kPa, x2 = 0	745.269 ± 0.63	–
298.15 K, 101 kPa, x2 = 0.0991	741.128 ± 0.64	–
298.15 K, 101 kPa, x2 = 0.2008	736.497 ± 0.64	–
298.15 K, 101 kPa, x2 = 0.2998	731.58 ± 0.65	–
298.15 K, 101 kPa, x2 = 0.5	720.233 ± 0.67	–
298.15 K, 101 kPa, x2 = 0.7005	706.501 ± 0.68	–
298.15 K, 101 kPa, x2 = 0.7995	698.598 ± 0.69	–
298.15 K, 101 kPa, x2 = 0.8486	694.34 ± 0.7	–
298.15 K, 101 kPa, x2 = 0.8988	689.718 ± 0.7	–
298.15 K, 101 kPa, x2 = 0.9498	684.775 ± 0.71	–
298.15 K, 15200 kPa, x2 = 0.5003	–	1314.6 ± 2.4
298.15 K, 15200 kPa, x2 = 0.9391	–	1247.1 ± 2.4
298.15 K, 15200 kPa, x2 = 0.97	–	1242.9 ± 2.4
298.15 K, 30390 kPa, x2 = 0.4999	–	1393.4 ± 2.4
298.15 K, 30390 kPa, x2 = 0.5003	–	1393.3 ± 2.4
298.15 K, 45590 kPa, x2 = 0.1014	–	1499.1 ± 2.4
298.15 K, 45590 kPa, x2 = 0.4999	–	1464 ± 2.4
298.15 K, 45590 kPa, x2 = 0.5003	–	1464.1 ± 2.4
298.15 K, 45590 kPa, x2 = 0.7007	–	1440.8 ± 2.4
298.15 K, 60790 kPa, x2 = 0.1014	–	1560.5 ± 2.5
298.15 K, 60790 kPa, x2 = 0.3007	–	1544.4 ± 2.5
298.15 K, 60790 kPa, x2 = 0.4999	–	1527.7 ± 2.5
298.15 K, 60790 kPa, x2 = 0.5003	–	1528 ± 2.5
298.15 K, 60790 kPa, x2 = 0.7007	–	1506.5 ± 2.5
298.15 K, 75990 kPa, x2 = 0.1014	–	1618.2 ± 2.5
298.15 K, 75990 kPa, x2 = 0.4999	–	1586.8 ± 2.5
298.15 K, 75990 kPa, x2 = 0.5003	–	1587 ± 2.5
298.15 K, 75990 kPa, x2 = 0.7007	–	1566.5 ± 2.5
298.15 K, 75990 kPa, x2 = 0.9391	–	1538.7 ± 2.5
298.15 K, 91180 kPa, x2 = 0.1014	–	1671 ± 2.5
298.15 K, 91180 kPa, x2 = 0.4999	–	1641.7 ± 2.6
